From patent publication US20260167636A1, “NOVEL COMPOUNDS FOR THE DIAGNOSIS OF TDP-43 PROTEINOPATHIES” (AC IMMUNE SA, priority 2022, published 2026)
Read-outs that look alike come from different tables or passages of the source. Marks after values point to notes of the source that are not given here.

Columns and labels:
Format in all cases: binding
[1] = molecular target: T1, FTD patient brain-derived TDP-43 aggregates (Homo sapiens, UniProt Q13148); test: Micro-radiobinding competition assay against [3H]-reference ligand; details: tritiated reference ligand at 25 nM; for Ki: 0.24 nM to 2 μM; for Human brain derived TDP-43 aggregates Mean % competition at 125 nM: compound at 125 nM; for Human brain derived TDP-43 aggregates Mean % competition at 1 μM: compound at 1 μM
T1 construct: A sample of brain tissue (frontal or temporal cortex) was homogenized; from tissue; host or cells: human FTD patient brain, frontal or temporal cortex, sarkosyl-insoluble fraction
T1 sequence (Q13148 whole entry): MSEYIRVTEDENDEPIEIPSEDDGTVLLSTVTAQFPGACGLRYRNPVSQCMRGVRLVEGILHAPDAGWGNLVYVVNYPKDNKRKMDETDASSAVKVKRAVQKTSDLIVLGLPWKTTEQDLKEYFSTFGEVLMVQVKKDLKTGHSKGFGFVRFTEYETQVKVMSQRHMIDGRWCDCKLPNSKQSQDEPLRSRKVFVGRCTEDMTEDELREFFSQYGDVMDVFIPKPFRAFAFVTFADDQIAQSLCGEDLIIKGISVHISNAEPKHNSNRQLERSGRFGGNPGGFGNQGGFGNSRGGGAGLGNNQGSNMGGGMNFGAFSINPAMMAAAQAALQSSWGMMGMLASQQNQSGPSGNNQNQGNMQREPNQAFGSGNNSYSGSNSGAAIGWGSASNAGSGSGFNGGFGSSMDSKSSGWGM
Procedure: (§1) Human brain extracts were prepared as described in Laferriere et al., 2019, Nature Neurosc. A sample of brain tissue (frontal or temporal cortex) was homogenized at 1:4 (w/v) ratio in the homogenization-solubilization (HS) buffer at 4° C. using tissue homogenizer (Precellys) with CKmix homogenization tubes. The following sequence was used for homogenization: 3 cycles of 30 seconds at 5000 rpm (with 15 seconds pause between each cycle). Homogenized samples were aliquoted and stored at −80° C. in 1.5 mL low protein binding tubes.
(§2) Brain homogenates were thawed on ice and resuspended in HS buffer to obtain a final concentration of 2% sarkosyl, 1 unit/μL Benzonase and 1 mM MgCl2. The samples were then incubated at 37° C. under constant shaking at 600 rpm on a thermomixer for 45 minutes (min). The supernatants were collected in a new tube (sarkosyl-soluble fraction, S1). The pellet was resuspended in 1000 μL of myelin floatation buffer and centrifuged at 20,000 g for 60 min at 4° C. The supernatant was carefully removed to remove all the floating lipids. This step was repeated if all the lipids could not be removed in a single step. The pellet was subsequently washed with Phosphate-Buffered Saline (PBS) and centrifuged for 30 min at 20,000 g at 4° C. The final pellet was resuspended in 200 μL PBS and stored at −80° C. (sarkosyl-insoluble fraction). The samples were analyzed by immunoblotting in denaturing conditions.
(§3) Human FTD sarkosyl-insoluble brain extracts were spotted onto microarray slides. Three batches of extracts were used. The slides were incubated with a tritiated reference ligand at 25 nM or with tritiated Compound 1 ([^3H]-Compound 1) at 40 nM or 50 nM depending on the batch used. The example compounds (non-radiolabeled) were used at 1 μM and 125 nM (or 1 μM and 100 nM for compound 15). In some cases, the non-radiolabeled example compounds were further assessed for a range of different concentrations, varying from 0.24 nM to 2 μM for determination of the inhibition constant (Ki). After incubation, slides were washed and scanned by a real-time autoradiography system (BeaQuant, ai4R). Quantification of the signal was performed by using the Beamage image analysis software (ai4R). Non-specific signal was determined with an excess of non-radiolabeled reference compound (2 μM) and specific binding was calculated by subtracting the non-specific signal from the total signal. Competition was calculated as percent, where 0% was defined as the specific binding in the presence of vehicle and 100% as the values obtained in the presence of excess of the non-radiolabeled reference compound. Ki values were calculated in GraphPad Prism8 by applying a nonlinear regression curve fit using a one site, specific binding model. Measurements were performed with at least two technical replicates in the two-concentration competition experiment and with one technical replicate in the experiments including a range of concentrations. For compounds tested in more than one experiment, the mean of the replicates or K; values in independent experiments is reported.
Results: Example compounds 1 to 10 were assessed for their potency to compete with the binding of [^3H]-reference ligand to FTD patient brain-derived TDP-43 aggregates. Results of the micro-radiobinding competition assay for the example compounds are shown in Table 2 below as: % competition at 1 μM and 125 nM.

[2] = molecular target: T2, Human brain derived TDP-43 aggregates (Homo sapiens, UniProt Q13148); test: Micro-radiobinding competition assay against [3H]-Compound 1; details: for Ki: 0.24 nM to 2 μM; for Ki / Human brain derived TDP-43 aggregates Mean % competition at 1 μM: [3H]-Compound 1 at 50 nM (40 nM for compound 15); for Human brain derived TDP-43 aggregates Mean % competition at 125 nM: compound at 125 nM, [3H]-Compound 1 at 50 nM; for Human brain derived TDP-43 aggregates Mean % competition at 1 μM: compound at 1 μM
T2 construct: A sample of brain tissue (frontal or temporal cortex) was homogenized; from tissue; host or cells: human FTD patient brain, frontal or temporal cortex, sarkosyl-insoluble fraction
T2 sequence (Q13148 whole entry): as above
Procedure: as §1, §2, §3
Example compounds 11 to 15 were assessed for their potency to compete with the binding of [^3H]-Compound 1 on two different batches of brain extracts. Results of the micro-radiobinding competition assay for the example compounds are shown in Table 3 below as: % competition at 1 μM and 125 nM (with Compound 1 at 50 nM) for compounds 11 to 14, or % competition at 1 μM and 100 nM (with Compound 1 at 40 nM) for compound 15 respectively.

[3] = molecular target: T3, TDP-43 aggregates in human FTD sarkosyl-insoluble brain extracts (Homo sapiens, UniProt Q13148); test: Kd determination with micro-radiobinding (saturation) assay on human FTD sarkosyl insoluble brain extract
T3 construct: A sample of brain tissue (frontal or temporal cortex) was homogenized; from tissue; host or cells: human FTD patient brain, frontal or temporal cortex, sarkosyl-insoluble fraction
T3 sequence (Q13148 whole entry): as above
Procedure: as §1, §2
2.1 Kd Determination on Human FTD Sarkosyl Insoluble Brain Extract with Micro-Radiobinding Assay of [^3H]-Compound 1, 4, 8, 11, 12
Human FTD sarkosyl-insoluble brain extracts were spotted onto microarray slides. The slides were incubated with [^3H]-Compound 1, [^3H]-Compound 4, [^3H]-Compound 8, [^3H]-Compound 11, or [^3H]-Compound 12 respectively, in a range of concentrations, varying from 1.93 to 300 nM. After incubation, slides were washed and scanned by a real-time autoradiography system (BeaQuant, ai4R). Quantification of the signal was performed by using the Beamage image analysis software (ai4R). Non-specific signal was determined with an excess of non-radiolabelled compound 1, 4, 8, 11 or 12 (2 μM), respectively, and specific binding was calculated by subtracting the non-specific signal from the total signal.
The Kd (Dissociation constant) and R^2 (parameter ranging between 0.0 and 1.0 that quantifies the goodness of fit, and the best curve fit obtained with value of 1.0) were obtained by fitting the specific binding data with non-linear regression analysis, using a one-site specific binding model in GraphPad Prism8.

[4] = tritiated compound 1.93 to 300 nM on human FTD sarkosyl-insoluble brain extracts, one-site specific binding fit, read-out: Kd (dissociation constant)
[5] = different batch of FTD sarkosyl-insoluble brain extracts, read-out: Kd (dissociation constant)

Structure (SMILES) | Ki [1] | Human brain derived TDP-43 aggregates Mean % competition at 125 nM [1] | Human brain derived TDP-43 aggregates Mean % competition at 1 μM [1] | also measured
O=C(Nc1ccc(F)nc1)c1cnc(-c2ccc(N3CC[C@@H](F)C3)nc2)s1 [Compound 1, (R)—N-(6-fluoropyridin-3-yl)-2-(6-(3-fluoropyrrolidin-1-yl)pyridin-3-yl)thiazole-5-carboxamide] | 0.105 µM | 63% | 102% | –
O=C(Nc1cnsc1)c1cnc(-c2ccc(N3CC[C@@H](F)C3)nc2)s1 [Compound 4, (R)-2-(6-(3-fluoropyrrolidin-1-yl)pyridin-3-yl)-N-(isothiazol-4-yl)thiazole-5-carboxamide] | 0.116 µM | 60% | 94% | –
O=C(Nc1cnc(F)cn1)c1cnc(-c2ccc(N3CC[C@@H](F)C3)nc2)s1 [Compound 5] | 0.223 µM | 53% | 70% | –
O=C(Nc1cnc(F)nc1)c1cnc(-c2ccc(N3CC[C@@H](F)C3)nc2)s1 [Compound 6] | 0.089 µM | 46% | 83% | –
Nc1cc(NC(=O)c2cnc(-c3ccc(N4CC[C@H](F)C4)nc3)s2)ccc1F [Compound 7] | 0.063 µM | 52% | 80% | –
O=C(Nc1ccncc1)c1cnc(-c2cnc(N3CC[C@H](F)C3)nc2)s1 [Compound 8, (S)-2-(2-(3-fluoropyrrolidin-1-yl)pyrimidin-5-yl)-N-(pyridin-4-yl)thiazole-5-carboxamide] | 0.075 µM | 47% | 78% | –
O=C(Nc1ccncc1)c1cnc(-c2cnc(N3CC[C@@H](F)C3)cn2)s1 [Compound 9] | 0.082 µM | 60% | 83% | –
O=C(Nc1ccc(F)nc1)c1cnc(-c2ccc(N3CC[C@@H](F)C3)cc2)s1 [Compound 10] | 0.071 µM | 54% | 70% | –
O=C(Nc1cncc(F)c1)c1cnc(-c2ccc(N3CC[C@@H](F)C3)nc2)s1 [Compound 11, (R)—N-(5-fluoropyridin-3-yl)-2-(6-(3-fluoropyrrolidin-1-yl)pyridin-3-yl)thiazole-5-carboxamide] | – | – | – | Ki [2]: 0.05 µM; Human brain derived TDP-43 aggregates Mean % competition at 125 nM [2]: 65%; Human brain derived TDP-43 aggregates Mean % competition at 1 μM [2]: 80%
O=C(Nc1cncc(F)c1)c1sc(-c2ccc(N3CC[C@@H](F)C3)nc2)nc1F [Compound 12, (R)-4-fluoro-N-(5-fluoropyridin-3-yl)-2-(6-(3-fluoropyrrolidin-1-yl)pyridin-3-yl)thiazole-5-carboxamide] | – | – | – | Ki [2]: 0.213 µM; Human brain derived TDP-43 aggregates Mean % competition at 125 nM [2]: 43%; Human brain derived TDP-43 aggregates Mean % competition at 1 μM [2]: 50%
O=C(Nc1ccc(F)nc1)c1sc(-c2ccc(N3CC[C@@H](F)C3)nc2)nc1F [Compound 13, (R)-4-fluoro-N-(6-fluoropyridin-3-yl)-2-(6-(3-fluoropyrrolidin-1-yl)pyridin-3-yl)thiazole-5-carboxamide] | – | – | – | Ki [2]: 0.107 µM; Human brain derived TDP-43 aggregates Mean % competition at 125 nM [2]: 42%; Human brain derived TDP-43 aggregates Mean % competition at 1 μM [2]: 75%
O=C(Nc1cncnc1)c1sc(-c2ccc(N3CC[C@@H](F)C3)nc2)nc1F [Compound 14] | – | – | – | Ki [2]: 0.153 µM; Human brain derived TDP-43 aggregates Mean % competition at 125 nM [2]: 38%; Human brain derived TDP-43 aggregates Mean % competition at 1 μM [2]: 77%
O=C(Nc1cnsc1)c1sc(-c2ccc(N3CC[C@@H](F)C3)nc2)nc1F [Compound 15] | – | – | – | Ki [2]: 0.01 µM; Mean % competition at 100 nM ([2]; compound at 100 nM, [3H]-Compound 1 at 40 nM): 47* %; Human brain derived TDP-43 aggregates Mean % competition at 1 μM [2]: 92%
O=C(Nc1ccc(F)nc1)c1cnc(-c2ccc(N3CC[C@@H](F)C3)nc2)s1 [[^3H]-Compound 1] | – | – | – | Kd ([3]; data from two independent experiments, human FTD sarkosyl-insoluble brain extracts, read-out: average Kd): 0.053 ± 0.01 µM; specific binding ([3]; human FTD sarkosyl insoluble brain extracts, result in words): high specific binding; Kd [3, 4]: 0.052 µM
O=C(Nc1cnsc1)c1cnc(-c2ccc(N3CC[C@@H](F)C3)nc2)s1 [[^3H]-Compound 4, tritiated (R)-2-(6-(3-fluoropyrrolidin-1-yl)pyridin-3-yl)-N-(isothiazol-4-yl)thiazole-5-carboxamide] | – | – | – | Kd [3, 5]: 0.051 µM
O=C(Nc1ccncc1)c1cnc(-c2cnc(N3CC[C@H](F)C3)nc2)s1 [[^3H]-Compound 8, tritiated (S)-2-(2-(3-fluoropyrrolidin-1-yl)pyrimidin-5-yl)-N-(pyridin-4-yl)thiazole-5-carboxamide] | – | – | – | Kd [3, 5]: 0.075 µM
O=C(Nc1cncc(F)c1)c1cnc(-c2ccc(N3CC[C@@H](F)C3)nc2)s1 [[^3H]-Compound 11, tritiated (R)—N-(5-fluoropyridin-3-yl)-2-(6-(3-fluoropyrrolidin-1-yl)pyridin-3-yl)thiazole-5-carboxamide] | – | – | – | Kd [3, 4]: 0.08 µM
O=C(Nc1cncc(F)c1)c1sc(-c2ccc(N3CC[C@@H](F)C3)nc2)nc1F [[^3H]-Compound 12] | – | – | – | Kd [3, 4]: 0.067 µM
